Test results taken from the supplement of paper PMC10307832.

Key:
Assay in all cases: relative viability (nuclei count vs DMSO), 5 days (fraction); higher = more cells survive
Imatinib + Linsitinib = compound: Cc1ccc(NC(=O)c2ccc(CN3CCN(C)CC3)cc2)cc1Nc1nccc(-c2cccnc2)n1 [Imatinib] + C[C@]1(O)C[C@@H](c2nc(-c3ccc4ccc(-c5ccccc5)nc4c3)c3c(N)nccn32)C1 [Linsitinib] (partner 1 µM)
In short: (§1)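 Relative viability divides the nuclei count in treated wells by that in vehicle wells. Lung cancer cell lines were seeded in 1536-well plates, dosed by pin tool the next day, and fixed and stained after 5 days in one step with final 0.05% Triton X-100, 1% formaldehyde and 1 ug/ml Hoechst. Dosing was a single drug or a fixed anchor-drug dose plus five library-drug doses (not always all listed) in √10 steps, and values are medians of duplicate plates imaged at 4×.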

Imatinib + Lapatinib = compound: Cc1ccc(NC(=O)c2ccc(CN3CCN(C)CC3)cc2)cc1Nc1nccc(-c2cccnc2)n1 [Imatinib] + CS(=O)(=O)CCNCc1ccc(-c2ccc3ncnc(Nc4ccc(OCc5cccc(F)c5)c(Cl)c4)c3c2)o1 [Lapatinib] (partner 2 µM)
In short: as §1

Imatinib + Decitabine = compound: Cc1ccc(NC(=O)c2ccc(CN3CCN(C)CC3)cc2)cc1Nc1nccc(-c2cccnc2)n1 [Imatinib] + Nc1ncn([C@H]2C[C@H](O)[C@@H](CO)O2)c(=O)n1 [Decitabine] (partner 2 µM)
In short: as §1

Imatinib + Tozasertib = compound: Cc1ccc(NC(=O)c2ccc(CN3CCN(C)CC3)cc2)cc1Nc1nccc(-c2cccnc2)n1 [Imatinib] + Cc1cc(Nc2cc(N3CCN(C)CC3)nc(Sc3ccc(NC(=O)C4CC4)cc3)n2)n[nH]1 [Tozasertib] (partner 0.1 µM)
In short: as §1

Cell Line	relative viability (Imatinib + Linsitinib; first compound 0.02 µM)	relative viability (Imatinib + Linsitinib; first compound 0.2 µM)	relative viability (Imatinib + Linsitinib; first compound 0.6325 µM)	relative viability (Imatinib + Linsitinib; first compound 2 µM)	relative viability (Imatinib + Lapatinib; first compound 0.02 µM)	relative viability (Imatinib + Lapatinib; first compound 0.2 µM)	relative viability (Imatinib + Lapatinib; first compound 0.6325 µM)	relative viability (Imatinib + Lapatinib; first compound 2 µM)	relative viability (Imatinib + Decitabine; first compound 0.02 µM)	relative viability (Imatinib + Decitabine; first compound 0.2 µM)	relative viability (Imatinib + Decitabine; first compound 0.6325 µM)	relative viability (Imatinib + Decitabine; first compound 2 µM)	relative viability (Imatinib + Tozasertib; first compound 0.02 µM)	relative viability (Imatinib + Tozasertib; first compound 0.2 µM)	relative viability (Imatinib + Tozasertib; first compound 0.6325 µM)	relative viability (Imatinib + Tozasertib; first compound 2 µM)	relative viability (Imatinib + Lapatinib; first compound 0.06325 µM)	relative viability (Imatinib + Decitabine; first compound 0.06325 µM)	relative viability (Imatinib + Tozasertib; first compound 0.06325 µM)	relative viability (Imatinib + Linsitinib; first compound 0.06325 µM)
NCI-H1355	0.865	0.846	0.841	0.871	1.04	1.1	1.02	0.99	0.359	0.35	0.345	0.35	0.589	0.51	0.395	0.349				
NCI-H1650					0.797	0.845	0.816	0.886	0.476	0.42	0.371	0.425	0.449	0.337	0.37	0.303	0.489	0.367	0.405	
NCI-H727	0.301	0.277	0.299	0.347	0.626	0.84	0.769	0.801		0.904	0.84	0.808	0.59	0.518	0.543	0.509	0.637		0.59	0.249
RERF-LC-KJ	0.879	1.03	0.872	0.94		0.498	0.819	0.763	0.755	0.655		0.754	0.527	0.476	0.389	0.305	0.853	0.558	0.498	1.08
PC-3 [JPC-3]		1.05	1.04		0.503	0.48	0.462	0.431	0.861		0.776	0.84	0.911	0.855	0.879	0.789				
PC-14		1.06	0.984	1.01	0.388	0.301	0.321	0.317	0.253	0.249	0.199	0.208	0.665	0.592	0.591	0.516	0.24	0.244		0.97
ABC-1	0.727	0.778	0.849	0.779	1.25	1.31	0.312	1.11	1.22	0.909	1.15	1.06	0.211	0.221	0.185	0.141	0.727			
SW 1573	0.879	0.799	0.685	0.809	1.33	1.28	0.983	1.17	0.646	0.575	0.471	0.437	0.174	0.202	0.131	0.175	0.676	0.4	0.231	0.965
UMC-11	1.14	1.05	1.08	1.06	1.01	1.25	0.995	0.994	0.554	0.59	0.619	0.683	0.192	0.216	0.211	0.208	1.1	0.615	0.205	1.57
NCI-H1793	1.09	1.06	0.96		0.841	0.536	0.647	0.831	0.477	0.522	0.447	0.445	0.309	0.328	0.223	0.28				
ChaGo-K-1									0.525	0.534	0.503	0.503	0.223	0.208	0.185	0.21			0.189	
IA-LM	0.688	0.561	1.38	0.593	1.01	0.656	1.31	0.719									1.23			0.652
NCI-H1703	0.629	0.449	0.418	0.138	1.01	0.439	0.276	0.281									1.1			0.204
NCI-H838	1.12	1.3	1.03	1.02					0.464	0.469	0.488	0.424	0.241	0.28	0.307	0.275		0.497	0.318	1.37
NCI-H2342									0.745	0.779	0.679	0.71	0.6	0.499	0.502	0.494		0.713	0.511	
NCI-H1734					1.26	1.3	1.1		0.522	0.573	0.486	0.533	0.243	0.278	0.259	0.264			0.268	
NCI-H2228	0.742	0.678	0.482	0.638	1.31	1.03	1.01	0.843					0.196	0.205	0.186	0.203	1.02			0.555
Calu-6	0.993	1.07	0.967	1.04	1.24	1.27	1.16	1.13									1.23			0.997
CAL-12T	0.908	0.996	0.982	0.788	0.631	0.938	0.705	0.667					0.369	0.311	0.293	0.225	0.609			0.877
NCI-H2023	0.778	0.796	0.682	0.719					0.228	0.24	0.22	0.223	0.461	0.254	0.259	0.18		0.252	0.319	0.871
NCI-H1299	1.14	1.04	0.983		0.999	0.988	0.956	0.988									1			1.08
EBC-1	1.18	1.07	1.04	0.818	0.182	0.216	0.195	0.168									0.187			0.974
LCLC-103H		1.08	1.03						0.717	0.767	0.74	0.754	0.463	0.514	0.481	0.398		0.741	0.473	
